Laboratory results taken from US12258327B2, “5-membered heteroaryl-containing aminopyridine compounds as EGFR inhibitors” (YUHAN CORPORATION, priority 2021, dated 2025).
Like-named read-outs stand apart in the source and are kept apart here.

Columns and labels:
EGFR wildtype (WT) = EGFR wildtype (WT) (Homo sapiens, UniProt P00533); test: Biochemical EGFR kinase assay (Lance Ultra TR-FRET), wildtype
In short: (§1)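 Step 1: compound in kinase buffer, 0.003–10 μM. Step 2: kinase reaction 1 h at room temperature. Step 4: TR-FRET read at 615/665 nm; IC50 calculated.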

EGFR del19/C797S = EGFR del19/C797S (Homo sapiens, UniProt P00533, C797S/DEL746-750); test: Biochemical EGFR kinase assay (Lance Ultra TR-FRET), double mutant del19/C797S
Chain of EGFR del19/C797S (P00533 with tags, fused parts or gaps DEL746-750/C797S): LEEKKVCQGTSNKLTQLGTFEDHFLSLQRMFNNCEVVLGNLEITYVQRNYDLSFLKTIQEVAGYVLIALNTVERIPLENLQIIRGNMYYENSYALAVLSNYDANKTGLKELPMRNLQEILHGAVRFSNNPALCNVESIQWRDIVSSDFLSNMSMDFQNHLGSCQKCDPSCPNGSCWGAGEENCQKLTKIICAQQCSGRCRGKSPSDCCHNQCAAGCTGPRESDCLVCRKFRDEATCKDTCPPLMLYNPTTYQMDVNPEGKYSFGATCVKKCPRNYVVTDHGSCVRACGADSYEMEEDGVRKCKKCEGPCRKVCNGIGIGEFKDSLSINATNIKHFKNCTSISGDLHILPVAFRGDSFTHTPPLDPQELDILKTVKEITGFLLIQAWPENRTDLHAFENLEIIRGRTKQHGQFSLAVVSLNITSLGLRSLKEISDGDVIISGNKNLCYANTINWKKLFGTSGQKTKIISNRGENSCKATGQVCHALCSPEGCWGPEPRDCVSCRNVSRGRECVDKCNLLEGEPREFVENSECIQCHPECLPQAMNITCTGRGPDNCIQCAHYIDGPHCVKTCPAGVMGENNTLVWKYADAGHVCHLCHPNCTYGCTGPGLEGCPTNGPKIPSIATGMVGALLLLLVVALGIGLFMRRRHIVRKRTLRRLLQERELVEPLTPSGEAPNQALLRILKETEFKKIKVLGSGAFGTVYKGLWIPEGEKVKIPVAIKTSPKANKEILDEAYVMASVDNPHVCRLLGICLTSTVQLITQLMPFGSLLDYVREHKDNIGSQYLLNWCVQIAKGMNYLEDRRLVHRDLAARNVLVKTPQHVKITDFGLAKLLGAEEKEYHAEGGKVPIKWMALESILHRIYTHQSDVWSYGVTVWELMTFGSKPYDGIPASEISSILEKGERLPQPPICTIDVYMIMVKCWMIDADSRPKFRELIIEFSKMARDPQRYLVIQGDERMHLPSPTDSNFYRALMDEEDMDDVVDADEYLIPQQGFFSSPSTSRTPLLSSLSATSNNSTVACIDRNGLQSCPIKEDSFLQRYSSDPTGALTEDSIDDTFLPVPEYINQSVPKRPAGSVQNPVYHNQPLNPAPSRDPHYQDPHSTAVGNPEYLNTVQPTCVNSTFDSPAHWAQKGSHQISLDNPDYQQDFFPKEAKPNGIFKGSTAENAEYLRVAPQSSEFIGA
In short: as §1

EGFR del19/T790M/C797S = EGFR del19/T790M/C797S (Homo sapiens, UniProt P00533, C797S/DEL746-750/T790M); test: Biochemical EGFR kinase assay (Lance Ultra TR-FRET), triple mutant del19/T790M/C797S
Chain of EGFR del19/T790M/C797S (P00533 with tags, fused parts or gaps DEL746-750/T790M/C797S): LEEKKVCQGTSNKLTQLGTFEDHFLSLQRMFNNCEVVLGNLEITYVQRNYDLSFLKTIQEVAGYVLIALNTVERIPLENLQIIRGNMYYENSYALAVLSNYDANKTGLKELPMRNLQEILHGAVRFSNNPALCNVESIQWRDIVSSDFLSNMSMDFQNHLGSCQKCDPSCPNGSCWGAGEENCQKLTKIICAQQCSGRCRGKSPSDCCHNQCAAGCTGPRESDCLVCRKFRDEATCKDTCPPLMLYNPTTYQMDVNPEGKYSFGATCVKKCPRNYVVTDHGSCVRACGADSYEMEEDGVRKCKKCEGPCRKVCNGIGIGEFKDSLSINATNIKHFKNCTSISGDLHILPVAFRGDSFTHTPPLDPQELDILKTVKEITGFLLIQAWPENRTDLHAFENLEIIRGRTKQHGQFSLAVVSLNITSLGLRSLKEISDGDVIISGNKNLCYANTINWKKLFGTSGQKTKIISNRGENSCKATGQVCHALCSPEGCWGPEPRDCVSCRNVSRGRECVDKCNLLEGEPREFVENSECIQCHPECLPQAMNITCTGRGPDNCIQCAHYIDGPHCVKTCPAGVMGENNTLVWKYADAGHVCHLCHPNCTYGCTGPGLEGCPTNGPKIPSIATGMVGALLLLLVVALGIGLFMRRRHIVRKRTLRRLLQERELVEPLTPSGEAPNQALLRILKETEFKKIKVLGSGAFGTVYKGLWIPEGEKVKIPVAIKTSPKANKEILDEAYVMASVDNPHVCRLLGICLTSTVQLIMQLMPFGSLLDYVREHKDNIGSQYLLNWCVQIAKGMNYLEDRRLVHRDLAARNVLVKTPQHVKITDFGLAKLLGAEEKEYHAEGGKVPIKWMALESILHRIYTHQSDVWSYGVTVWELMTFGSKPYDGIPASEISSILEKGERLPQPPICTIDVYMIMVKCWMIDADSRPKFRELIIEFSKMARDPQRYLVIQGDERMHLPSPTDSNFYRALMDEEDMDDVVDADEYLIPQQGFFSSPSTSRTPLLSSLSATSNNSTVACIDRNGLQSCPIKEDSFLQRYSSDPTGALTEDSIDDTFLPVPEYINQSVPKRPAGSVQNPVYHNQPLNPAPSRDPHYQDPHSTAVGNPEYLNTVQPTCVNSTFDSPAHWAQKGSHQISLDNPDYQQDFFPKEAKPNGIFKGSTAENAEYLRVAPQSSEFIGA
In short: as §1

EGFR L858R/C797S = EGFR L858R/C797S (Homo sapiens, UniProt P00533, C797S/L858R); test: Biochemical EGFR kinase assay (Lance Ultra TR-FRET), double mutant L858R/C797S
In short: as §1

EGFR L858R/T790M/C797S = EGFR L858R/T790M/C797S (Homo sapiens, UniProt P00533, C797S/L858R/T790M); test: Biochemical EGFR kinase assay (Lance Ultra TR-FRET), triple mutant L858R/T790M/C797S
Chain of EGFR L858R/T790M/C797S (P00533 25-1210 T790M/C797S/L858R): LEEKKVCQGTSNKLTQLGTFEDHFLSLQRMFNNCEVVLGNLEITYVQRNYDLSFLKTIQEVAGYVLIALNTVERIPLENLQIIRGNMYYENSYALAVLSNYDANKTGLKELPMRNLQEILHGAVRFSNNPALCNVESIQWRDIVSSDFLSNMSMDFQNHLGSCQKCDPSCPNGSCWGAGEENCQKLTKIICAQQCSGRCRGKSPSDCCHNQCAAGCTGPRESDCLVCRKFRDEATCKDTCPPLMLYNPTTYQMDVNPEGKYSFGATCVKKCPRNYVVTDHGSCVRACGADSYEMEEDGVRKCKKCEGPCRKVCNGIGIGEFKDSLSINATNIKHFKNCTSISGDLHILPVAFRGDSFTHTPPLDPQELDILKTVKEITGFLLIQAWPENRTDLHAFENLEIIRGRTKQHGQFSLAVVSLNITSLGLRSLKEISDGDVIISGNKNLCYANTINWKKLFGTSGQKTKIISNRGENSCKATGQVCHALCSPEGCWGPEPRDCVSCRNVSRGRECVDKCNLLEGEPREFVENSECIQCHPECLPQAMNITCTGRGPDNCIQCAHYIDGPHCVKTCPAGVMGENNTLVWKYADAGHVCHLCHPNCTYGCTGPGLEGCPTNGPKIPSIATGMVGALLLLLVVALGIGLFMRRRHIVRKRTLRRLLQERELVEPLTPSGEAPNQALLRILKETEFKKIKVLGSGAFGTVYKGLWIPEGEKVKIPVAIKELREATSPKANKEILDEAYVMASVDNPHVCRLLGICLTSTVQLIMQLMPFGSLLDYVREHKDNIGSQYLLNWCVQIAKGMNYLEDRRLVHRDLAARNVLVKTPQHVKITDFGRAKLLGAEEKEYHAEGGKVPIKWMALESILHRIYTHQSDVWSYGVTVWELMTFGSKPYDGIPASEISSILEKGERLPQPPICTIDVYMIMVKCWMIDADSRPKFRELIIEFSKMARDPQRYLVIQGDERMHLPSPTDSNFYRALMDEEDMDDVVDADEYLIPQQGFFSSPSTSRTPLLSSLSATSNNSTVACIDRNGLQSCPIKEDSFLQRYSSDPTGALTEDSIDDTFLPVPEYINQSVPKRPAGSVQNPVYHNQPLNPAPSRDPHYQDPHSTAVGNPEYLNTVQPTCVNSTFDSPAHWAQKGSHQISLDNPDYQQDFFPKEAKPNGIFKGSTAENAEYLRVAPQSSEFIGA
In short: as §1

[1] = IC50 WT (nM) 100 μM ATP, 100 μM ATP
[2] = IC50 del19/C797S (nM) 100 μM ATP, 100 μM ATP
[3] = Km ATP, read-out: IC50 del19/C797S (nM) Km ATP
[4] = IC50 del19/T790M/C797S (nM) 100 μM ATP, 100 μM ATP
[5] = Km ATP, read-out: IC50 del19/T790M/C797S (nM) Km ATP
[6] = IC50 L858R/C797S (nM) 100 μM ATP, 100 μM ATP
[7] = Km ATP, read-out: IC50 L858R/C797S (nM) Km ATP
[8] = IC50 L858R/T790M/C797S (nM) 100 μM ATP, 100 μM ATP
[9] = Km ATP, read-out: IC50 L858R/T790M/C797S (nM) Km ATP
[10] = Km ATP, read-out: IC50 WT, Km ATP
[11] = Km ATP, read-out: IC50 del19/C797S, Km ATP
[12] = Km ATP, read-out: IC50 del19/T790M/C797S, Km ATP
[13] = Km ATP, read-out: IC50 L858R/C797S, Km ATP
[14] = Km ATP, read-out: IC50 L858R/T790M/C797S, Km ATP
[15] = Km ATP, read-out: IC50 WT (nM) Km ATP

Chain of EGFR wildtype (WT) (P00533 25-1210): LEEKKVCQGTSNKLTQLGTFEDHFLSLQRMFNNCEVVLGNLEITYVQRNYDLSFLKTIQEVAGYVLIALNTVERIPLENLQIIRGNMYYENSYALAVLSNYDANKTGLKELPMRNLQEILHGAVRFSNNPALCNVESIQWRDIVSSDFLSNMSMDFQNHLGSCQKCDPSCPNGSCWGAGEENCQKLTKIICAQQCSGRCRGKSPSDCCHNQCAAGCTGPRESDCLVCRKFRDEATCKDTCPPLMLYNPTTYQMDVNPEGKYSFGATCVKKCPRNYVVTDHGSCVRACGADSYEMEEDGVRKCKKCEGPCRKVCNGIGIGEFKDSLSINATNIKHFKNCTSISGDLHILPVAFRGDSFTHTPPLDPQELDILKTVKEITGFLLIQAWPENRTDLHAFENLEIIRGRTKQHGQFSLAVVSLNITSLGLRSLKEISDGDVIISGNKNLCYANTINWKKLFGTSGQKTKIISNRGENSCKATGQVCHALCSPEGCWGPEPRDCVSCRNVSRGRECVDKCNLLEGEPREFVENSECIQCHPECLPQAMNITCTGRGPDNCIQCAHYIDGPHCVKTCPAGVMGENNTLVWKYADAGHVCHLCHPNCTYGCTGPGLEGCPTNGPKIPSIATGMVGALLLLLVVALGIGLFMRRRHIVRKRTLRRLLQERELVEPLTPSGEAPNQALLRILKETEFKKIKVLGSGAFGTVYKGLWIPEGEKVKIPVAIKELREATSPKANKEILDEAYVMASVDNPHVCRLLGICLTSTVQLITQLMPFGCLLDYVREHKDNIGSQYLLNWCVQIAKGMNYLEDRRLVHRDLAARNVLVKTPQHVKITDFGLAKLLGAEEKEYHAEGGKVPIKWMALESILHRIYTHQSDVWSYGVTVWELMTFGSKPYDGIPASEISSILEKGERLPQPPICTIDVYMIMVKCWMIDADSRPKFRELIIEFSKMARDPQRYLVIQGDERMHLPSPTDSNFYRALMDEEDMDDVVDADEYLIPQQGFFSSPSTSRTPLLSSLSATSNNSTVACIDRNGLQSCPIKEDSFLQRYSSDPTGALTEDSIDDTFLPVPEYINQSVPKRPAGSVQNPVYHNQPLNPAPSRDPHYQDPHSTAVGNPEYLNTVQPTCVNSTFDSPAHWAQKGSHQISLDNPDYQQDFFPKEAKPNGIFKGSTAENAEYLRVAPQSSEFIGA

Row | SMILES | IC50 (EGFR wildtype (WT); [1]) [nM] | IC50 (EGFR del19/C797S; [2]) [nM] | IC50 (EGFR del19/C797S; [3]) [nM] | IC50 (EGFR del19/T790M/C797S; [4]) [nM] | IC50 (EGFR del19/T790M/C797S; [5]) [nM] | IC50 (EGFR L858R/C797S; [6]) [nM] | IC50 (EGFR L858R/C797S; [7]) [nM] | IC50 (EGFR L858R/T790M/C797S; [8]) [nM] | IC50 (EGFR L858R/T790M/C797S; [9]) [nM] | IC50 (EGFR wildtype (WT); [10]) [nM] | IC50 (EGFR del19/C797S; [11]) [nM] | IC50 (EGFR del19/T790M/C797S; [12]) [nM] | IC50 (EGFR L858R/C797S; [13]) [nM] | IC50 (EGFR L858R/T790M/C797S; [14]) [nM] | IC50 (EGFR wildtype (WT); [15]) [nM] | IC50 (EGFR wildtype (WT); read-out: IC50 WT (nM) 100 μM ATP, 100 μM ATP) [nM] | IC50 (EGFR del19/C797S; read-out: IC50 del19/C797S (nM) 100 μM ATP, 100 μM ATP) [nM] | IC50 (EGFR del19/T790M/C797S; read-out: IC50 del19/T790M/C797S (nM) 100 μM ATP, 100 μM ATP) [nM] | IC50 (EGFR L858R/T790M/C797S; read-out: IC50 L858R/T790M/C797S (nM) 100 μM ATP, 100 μM ATP) [nM]
1 | CN(C)C(=O)[C@H]1CC[C@@H](Nc2cc(Nc3ccnc(-c4cnn(S(=O)(=O)C5CC5)c4)n3)ncc2-c2ccn(C)n2)CC1 [Example 232, (1s,4s)-4-((2-((2-(1-(Cyclopropylsulfonyl)-1H-pyrazol-4-yl)pyrimidin-4-yl)amino)-5-(1-methyl-1H-pyrazol-3-yl)pyridin-4-yl)amino)-N,N-dimethylcyclohexane-1-carboxamide] | 247 | 1.1 | 0.5 | 0.4 | 0.6 | 1.6 | 0.4 | 0.4 | 0.3 |  |  |  |  |  |  |  |  |  | 
2 | C[C@]1(O)CC[C@@H](Nc2nc(Nc3ccnc(-c4cnn(S(=O)(=O)C5CC5)c4)c3)ncc2-c2ccn(CCC(F)(F)F)n2)CC1 [Example 359, (1s,4s)-4-((2-((2-(1-(Cyclopropylsulfonyl)-1H-pyrazol-4-yl)pyridin-4-yl)amino)-5-(1-(3,3,3-trifluoropropyl)-1H-pyrazol-3-yl)pyrimidin-4-yl)amino)-1-methylcyclohexan-1-ol] |  |  |  |  |  |  |  |  |  | 208 | 15.4 | 0.6 | 18.3 | 1.6 |  |  |  |  | 
3 | COCn1cc(-c2nccc(Nc3cc(N[C@H]4CC[C@@](C)(O)CC4)c(-c4ccn(C(F)F)n4)cn3)n2)cn1 [Example 310, (1s,4s)-4-((5-(1-(Difluoromethyl)-1H-pyrazol-3-yl)-2-((2-(1-(methoxymethyl)-1H-pyrazol-4-yl)pyrimidin-4-yl)amino)pyridin-4-yl)amino)-1-methylcyclohexan-1-ol] | > 10000 | 36.8 | 0.1 | 4 |  | 237 |  | 19 |  |  |  |  |  |  |  |  |  |  | 
4 | CN(C)S(=O)(=O)n1cc(-c2nccc(Nc3cc(N[C@H]4CC[C@@](C)(O)CC4)c(-c4ccn(C(F)F)n4)cn3)n2)cn1 [Example 317, 4-(4-((5-(1-(Difluoromethyl)-1H-pyrazol-3-yl)-4-(((1s,4s)-4-hydroxy-4-methylcyclohexyl)amino)pyridin-2-yl)amino)pyrimidin-2-yl)-N,N-dimethyl-1H-pyrazole-1-sulfonamide] | > 10000 | 16.8 | 5.5 | 0.3 | 0.5 | 53.6 | 2.2 | 0.2 | 0.1 |  |  |  |  |  | 12.1 |  |  |  | 
5 | CN(C)[C@H]1CC[C@H](CNc2cc(Nc3ccnc(-c4cnn(S(=O)(=O)C5CC5)c4)n3)ncc2-c2ccn(C(F)F)n2)CC1 [Example 25, N^2-(2-(1-(Cyclopropylsulfonyl)-1H-pyrazol-4-yl)pyrimidin-4-yl)-5-(1-(difluoromethyl)-1H-pyrazol-3-yl)-N^4-(((1r,4r)-4-(dimethylamino)cyclohexyl)methyl)pyridine-2,4-diamine] |  |  | 0.2 |  | 0.1 |  | 0.3 |  | 0.02 |  |  |  |  |  | 2.7 | 2050 | 0.3 | 0.1 | 0.1
6 | CC1(O)CCC(Nc2cc(Nc3ccnc(-c4cnn(C5CCCCO5)c4)n3)ncc2-c2ccn(C(F)F)n2)CC1 (centres unmarked) [Example 314, (1s,4s)-4-((5-(1-(Difluoromethyl)-1H-pyrazol-3-yl)-2-((2-(1-(tetrahydro-2H-pyran-2-yl)-1H-pyrazol-4-yl)pyrimidin-4-yl)amino)pyridin-4-yl)amino)-1-methylcyclohexan-1-ol] | > 10000 | 300 | 133 | 5.2 | 1.9 | 1480 | 75.2 | 1.9 | 0.5 |  |  |  |  |  | 595 |  |  |  | 
7 | Cn1nc(-c2cnc(Nc3ccnc(-c4cnn(S(=O)(=O)C5CC5)c4)n3)cc2NN2CCC(O)CC2)cc1C(F)(F)F [Example 160, 1-((2-((2-(1-(Cyclopropylsulfonyl)-1H-pyrazol-4-yl)pyrimidin-4-yl)amino)-5-(1-methyl-5-(trifluoromethyl)-1H-pyrazol-3-yl)pyridin-4-yl)amino)piperidin-4-ol] |  |  | 2 |  | 1 |  | 1 |  | 0.5 |  |  |  |  |  | 8.3 |  |  |  | 
8 | Cn1nc(-c2cnc(Nc3ccnc(-c4cnn(CC(F)(F)F)c4)n3)cc2N[C@H]2CC[C@@](C)(O)CC2)cc1C(F)(F)F [Example 329, (1s,4s)-1-Methyl-4-((5-(1-methyl-5-(trifluoromethyl)-1H-pyrazol-3-yl)-2-((2-(1-(2,2,2-trifluoroethyl)-1H-pyrazol-4-yl)pyrimidin-4-yl)amino)pyridin-4-yl)amino)cyclohexan-1-ol] | > 10000 | 37.1 | 24.6 | 6.5 | 2.5 | 1140 | 75 | 4.1 | 1.2 |  |  |  |  |  | 288 |  |  |  | 
9 | O=S(=O)(C1CC1)n1cc(-c2ncc(F)c(Nc3cc(N[C@H]4CC[C@@H](CCO)CC4)c(-c4ccn(CC(F)F)n4)cn3)n2)cn1 [Example 336, 2-((1s,4s)-4-((2-((2-(1-(Cyclopropylsulfonyl)-1H-pyrazol-4-yl)-5-fluoropyrimidin-4-yl)amino)-5-(1-(2,2-difluoroethyl)-1H-pyrazol-3-yl)pyridin-4-yl)amino)cyclohexyl)ethan-1-ol] |  |  |  |  |  |  |  |  |  | 2550 | 37.3 | 1 | 20.5 | 1.1 |  |  |  |  | 
10 | C[C@]1(O)CC[C@@H](Nc2cc(Nc3ccnc(N4CCC[C@@H](O)C4)n3)ncc2-c2ccn(C(F)F)n2)CC1 [Example 352, (R)-1-(4-((5-(1-(Difluoromethyl)-1H-pyrazol-3-yl)-4-(((1s,4S)-4-hydroxy-4-methylcyclohexyl)amino)pyridin-2-yl)amino)pyrimidin-2-yl)piperidin-3-ol] |  |  |  |  |  |  |  |  |  | 457 | 653 | 7.3 | 105 | 4.8 |  |  |  |  | 
11 | C[C@]1(O)CC[C@@H](Nc2cc(Nc3ccnc(-c4ccc(F)nc4F)n3)ncc2-c2ccn(C(F)F)n2)CC1 [Example 170, (1s,4s)-4-((5-(1-(Difluoromethyl)-1H-pyrazol-3-yl)-2-((2-(2,6-difluoropyridin-3-yl)pyrimidin-4-yl)amino)pyridin-4-yl)amino)-1-methylcyclohexan-1-ol] |  |  | 1340 |  | 49.7 |  | 814 |  | 16.9 |  |  |  |  |  | 1980 |  |  |  | 
12 | C[C@]1(O)CC[C@@H](Nc2cc(Nc3nc(-c4cnn(S(=O)(=O)C5CC5)c4)ncc3F)ncc2-c2ccn(CC(F)F)n2)CC1 [Example 345, (1s,4s)-4-((2-((2-(1-(Cyclopropylsulfonyl)-1H-pyrazol-4-yl)-5-fluoropyrimidin-4-yl)amino)-5-(1-(2,2-difluoroethyl)-1H-pyrazol-3-yl)pyridin-4-yl)amino)-1-methylcyclohexan-1-ol] |  |  |  |  |  |  |  |  |  | 22.2 | 4.6 | 0.4 | 0.3 | 0.9 |  |  |  |  | 
13 | CN(C)C[C@H]1C[C@H](CNc2cc(Nc3ccnc(-c4cnn(S(=O)(=O)C5CC5)c4)n3)ncc2-c2ccn(C)n2)C1 [Example 239, N^2-(2-(1-(Cyclopropylsulfonyl)-1H-pyrazol-4-yl)pyrimidin-4-yl)-N^4-(((1r,3r)-3-((dimethylamino)methyl)cyclobutyl)methyl)-5-(1-methyl-1H-pyrazol-3-yl)pyridine-2,4-diamine] |  |  | 4.6 |  | 0.3 |  | 3.6 |  | 0.1 |  |  |  |  |  | 10.1 |  |  |  | 
14 | Cn1ccc(-c2cnc(Nc3ccnc(-c4cnn(S(=O)(=O)C5CC5)c4)n3)cc2NCC2(C)CCC(O)CC2)n1 (centres unmarked) [Example 127, 4-(((2-((2-(1-(Cyclopropylsulfonyl)-1H-pyrazol-4-yl)pyrimidin-4-yl)amino)-5-(1-methyl-1H-pyrazol-3-yl)pyridin-4-yl)amino)methyl)-4-methylcyclohexan-1-ol] | > 10000 | 25.8 | 16.9 | 1 | 0.7 | 355 | 19.6 | 1.8 | 0.7 |  |  |  |  |  | 53 |  |  |  | 
15 | CC(C)(O)c1nc(-c2cnc(Nc3ccnc(-c4cnn(S(=O)(=O)C5CC5)c4)n3)cc2N[C@H]2CCC[C@H](O)C2)cs1 [Example 91, (1S,3S)-3-((2-((2-(1-(Cyclopropylsulfonyl)-1H-pyrazol-4-yl)pyrimidin-4-yl)amino)-5-(2-(2-hydroxypropan-2-yl)thiazol-4-yl)pyridin-4-yl)amino) cyclohexan-1-ol] | > 10000 | 0.8 |  | 1 |  | 8.7 |  | 2.3 |  |  |  |  |  |  |  |  |  |  | 
